These results are taken from patent publication US12472168B2, “Ring-fused thiazolino 2-pyridones, methods for preparation thereof and their use in the treatment and/or prevention of a disease involving gram-positive bacteria” (Quretech Bio AB, priority 2017, dated 2025).

For one test, the system named is MRSA. The test is described as follows: Minimum Inhibitory Concentration (MIC) and Minimum Bactericidal Concentration (MBC) assays. As to conditions: Staphylococcus aureus, compound alone, no antibiotic; for MIC: 18 h, overnight (18 hrs), read-out: MIC. Format: cell-based, Methicillin-resistant Staphylococcus aureus. Here is the method: (§1) MIC was defined by the lowest concentration of the test compound that inhibits visible growth of pathogen of interest. The optical density of the pathogen of interest culture was measured by OD600.
(§2) MBC was determined colony forming units (CFUs) enumeration by serially diluting and plating bacterial cultures on BHI plates.
(§3) Thus, no antibiotic was used in Table 2.

For the next test, the system named is E. faecalis. The test is described as follows: MIC and MBC assays. The test is classed as cell-based. As to conditions: Enterococcus faecalis, compound alone, no antibiotic; for MIC: overnight (18 hrs). Here is the method: as §1, §2, §3
Another test relates to Streptococcus. The test is described as follows: MIC and MBC assays. The test is classed as cell-based. To be noted: compound alone, no antibiotic. The method, then:
as §1, §2, §3

The next test concerns E. faecalis OG1RF. Kind of test: Stand alone activity in vivo, mouse model of catheter-associated urinary tract infection (CAUTI). Set-up: species or system Enterococcus faecalis. To be noted: C57BL/6Ncr mice, 10 mg/kg intraperitoneally 24 hours post-infection, sacrificed 48 hours post-infection, compound alone. Here is the method:
Mice used in this study were six-week-old female wild-type C57BL/6Ncr mice. Mice were anesthetized by inhalation of isoflurane and implanted with a 5-mm length of platinum-cured silicone catheter. Then, mice were infected immediately following catheter implantation with 50 μl of ˜2×10^7 CFU of E. faecalis OG1RF in PBS (1 mL) was introduced in the bladder lumen by transurethral inoculation. […] Mice were sacrificed at 48 hours post-infection by cervical dislocation after anaesthesia inhalation, and the bladders were aseptically harvested. Subsequently, the silicone implant was retrieved from the bladder. Catheters were placed in 1×PBS (1 mL), sonicated for 10 min, to detach E. faecalis and bladders were homogenized in 1×PBS (1 mL).
Mice used in this study were six-week-old female wild-type C57BL/6Ncr mice. Mice were anesthetized by inhalation of isoflurane and implanted with a 5-mm length of platinum-cured silicone catheter.
Mice were sacrificed at 48 hours post-infection by cervical dislocation after anaesthesia inhalation, and the bladders were aseptically harvested. Subsequently, the silicone implant was retrieved from the bladder. Catheters were placed in 1×PBS (1 mL), sonicated for 10 min, to detach E. faecalis and bladders were homogenized in 1×PBS (1 mL). For bacterial enumeration on catheters and bladder, samples were serially diluted and plated on BHI for CFU enumeration.

The test system of another test is Staph. aureus. The test is described as follows: MIC and MBC assays. As to conditions: Staphylococcus aureus, compound alone, no antibiotic; for MIC: overnight (18 hrs). The test is classed as cell-based. Here is the method: (§4) […]. MIC was defined by the lowest concentration of the test compound that inhibits visible growth of pathogen of interest. The optical density of the pathogen of interest culture was measured by OD600.
(§5) […]. MBC was determined colony forming units (CFUs) enumeration by serially diluting and plating bacterial cultures on BHI plates.
(§6) . Thus, no antibiotic was used in Table 2.

The test system of the next test is Staph. saphyticus. The test is described as follows: MIC and MBC assays. As to conditions: Staphylococcus, compound alone, no antibiotic; for MIC: overnight (18 hrs). The test is classed as cell-based. The method, then:
as §4, §5, §6

The test system of the next test is Strep. pyogenes. Kind of test: MIC and MBC assays. As to conditions: Streptococcus pyogenes, compound alone, no antibiotic; for MIC: overnight (18 hrs). The test is classed as cell-based. Here is the method:
as §4, §5, §6

The subject of a further test is C. diff. Kind of test: MIC and MBC assays. Format: cell-based, Clostridium difficile. To be noted: Clostridioides difficile, compound alone, no antibiotic; for MIC: overnight (18 hrs). Here is the method:
as §4, §5, §6

In brackets after ≈: the same amount, converted by molar mass. Where only a bound is given, the exact number is not on record here.

What is called MIC is the lowest concentration that inhibits growth of the organism. As a reminder, the MBC is the lowest tested concentration that kills the bacteria rather than only halting them. For the compound `CCCCCOc1ccc(-c2sc3c(C4CC4)c(Cc4cccc5ccccc45)cc(=O)n3c2C(=O)O)cc1C` [Example 6, 5-Cyclopropyl-4-[(1-naphthyl)methyl]-2-oxo-8-[4-(pentyloxy)-3-methyl-phenyl]-7-thia-1-azabicyclo[4.3.0]nona-3,5,8-triene-9-carboxylic acid], the MIC amounted to 69 µM (≈ 38.1 µg/mL) in the test on MRSA and 200 µM (≈ 110 µg/mL) in the test with E. faecalis. Further, the MBC against MRSA is 37 µM (≈ 20.4 µg/mL); against E. faecalis, 100 µM (≈ 55.2 µg/mL); with Streptococcus, 23 µM (≈ 12.7 µg/mL).

In the case of `CCCCOc1ccc(-c2sc3c(C4CC4)c(Cc4cccc5ccccc45)cc(=O)n3c2C(=O)O)cc1C` [Example 7, 8-(4-Butoxy-3-methyl-phenyl)-5-cyclopropyl-4-[(1-naphthyl)methyl]-2-oxo-7-thia-1-azabicyclo[4.3.0]nona-3,5,8-triene-9-carboxylic acid], the MIC in the test on MRSA worked out at 25 µM (≈ 13.4 µg/mL); in the test with E. faecalis it was 95 µM (≈ 51.1 µg/mL). Further, the MBC stood at 32 µM (≈ 17.2 µg/mL) with MRSA, 19 µM (≈ 10.2 µg/mL) with E. faecalis and 7 µM (≈ 3.76 µg/mL) against Streptococcus.

As for `CCCOc1ccc(-c2sc3c(OC)c(Cc4cccc5ccccc45)cc(=O)n3c2C(=O)O)cc1C` [Example 10, 5-Methoxy-4-[(1-naphthyl)methyl]-2-oxo-8-(4-propoxy-3-methyl-phenyl)-7-thia-1-azabicyclo[4.3.0]nona-3,5,8-triene-9-carboxylic acid], the MIC stood at 17 µM (≈ 8.73 µg/mL) with MRSA and 188 µM (≈ 96.6 µg/mL) in the test on E. faecalis. Moreover, the MBC in the test on MRSA was 17 µM (≈ 8.73 µg/mL); in the test on E. faecalis, 50 µM (≈ 25.7 µg/mL); with Streptococcus, 5 µM (≈ 2.57 µg/mL).

Turning to `CCCCCOc1ccc(-c2sc3c(C4CC4)c(Cc4cccc5ccccc45)cc(=O)n3c2C(=O)O)cc1` [Example 12, 5-Cyclopropyl-4-[(1-naphthyl)methyl]-2-oxo-8-[p-(pentyloxy)phenyl]-7-thia-1-azabicyclo[4.3.0]nona-3,5,8-triene-9-carboxylic acid], the MIC is 70 µM (≈ 37.6 µg/mL) with MRSA and 300 µM (≈ 161 µg/mL) against E. faecalis. The MBC stood at 25 µM (≈ 13.4 µg/mL) in the test with MRSA and 2 µM (≈ 1.08 µg/mL) in the test on Streptococcus.

For the compound `CCCCOc1ccc(-c2sc3c(C4CC4)c(Cc4cccc5ccccc45)cc(=O)n3c2C(=O)O)cc1` [Example 13, 8-(p-Butoxyphenyl)-5-cyclopropyl-4-[(1-naphthyl)methyl]-2-oxo-7-thia-1-azabicyclo[4.3.0]nona-3,5,8-triene-9-carboxylic acid], the MIC in the test on MRSA was determined as 31 µM (≈ 16.2 µg/mL); in the test with E. faecalis, 300 µM (≈ 157 µg/mL). For the same compound, the MBC amounted to 25 µM (≈ 13.1 µg/mL) in the test on MRSA and 3 µM (≈ 1.57 µg/mL) in the test on Streptococcus.

For the compound `COc1c(Cc2cccc3ccccc23)cc(=O)n2c(C(=O)O)c(-c3ccc(OCCCC(C)C)c(C)c3)sc12` [Example 23, 8-[4-(Isohexyloxy)-3-methyl-phenyl]-5-methoxy-4-[(1-naphthyl)methyl]-2-oxo-7-thia-1-azabicyclo[4.3.0]nona-3,5,8-triene-9-carboxylic acid], the MIC in the test on MRSA is 45 µM (≈ 25 µg/mL); in the test with E. faecalis, > 100 µM. The “reduction of bacterial titers in the bladder” value (shortened to “reduction … in the bladder”) in the test with E. faecalis OG1RF is listed as “about 1.5 log units”. For the same compound, in the test with E. faecalis OG1RF, the “reduction of bacterial titers on the catheters” value (“reduction … on the catheters” for short) was “about 0.4 log units”.

`O=C(O)c1c(Cc2ccccc2)sc2c(C3CC3)c(Cc3cccc4ccccc34)cc(=O)n12` [Example 28, 8-Benzyl-5-cyclopropyl-4-[(1-naphthyl)methyl]-2-oxo-7-thia-1-azabicyclo[4.3.0]nona-3,5,8-triene-9-carboxylic acid]: the MIC was 25 µM (≈ 11.6 µg/mL) with MRSA; 25 µM (≈ 11.6 µg/mL) against Staph. aureus; 100 µM (≈ 46.6 µg/mL) in the test with Staph. saphyticus; 12.5 µM (≈ 5.82 µg/mL) against Strep. pyogenes; 25 µM (≈ 11.6 µg/mL) in the test with E. faecalis; 50 µM (≈ 23.3 µg/mL) with C. diff. Further, the minimum bactericidal concentration (MBC) with MRSA was 50 µM (≈ 23.3 µg/mL); against Staph. aureus it was 50 µM (≈ 23.3 µg/mL); against Staph. saphyticus, 25 µM (≈ 11.6 µg/mL); with Strep. pyogenes, 25 µM (≈ 11.6 µg/mL); in the test with E. faecalis it was 100 µM (≈ 46.6 µg/mL); in the test on C. diff, 50 µM (≈ 23.3 µg/mL). For the same compound, in the test with E. faecalis OG1RF, the “reduction … in the bladder” value is given as “about 0.5 log units”. In addition, in the test with E. faecalis OG1RF, the “reduction … on the catheters” value is “about 0.4 log units”.

`Cc1cccc(-c2sc3c(C4CC4)c(Cc4cccc5ccccc45)cc(=O)n3c2C(=O)O)c1` [Example 30, 5-Cyclopropyl-4-[(1-naphthyl)methyl]-2-oxo-8-(m-tolyl)-7-thia-1-azabicyclo[4.3.0]nona-3,5,8-triene-9-carboxylic acid]: the minimal inhibitory concentration (MIC) in the test on MRSA turned out to be 25 µM (≈ 11.6 µg/mL); against Staph. aureus, 50 µM (≈ 23.3 µg/mL); in the test on Staph. saphyticus it was 100 µM (≈ 46.6 µg/mL); against Strep. pyogenes it was 25 µM (≈ 11.6 µg/mL); in the test with E. faecalis, 50 µM (≈ 23.3 µg/mL); against C. diff, 50 µM (≈ 23.3 µg/mL). Further, the MBC is 50 µM (≈ 23.3 µg/mL) in the test on MRSA; 50 µM (≈ 23.3 µg/mL) in the test on Staph. aureus; 12.5 µM (≈ 5.82 µg/mL) against Staph. saphyticus; 12.5 µM (≈ 5.82 µg/mL) against Strep. pyogenes; 100 µM (≈ 46.6 µg/mL) with E. faecalis; 19 µM (≈ 8.85 µg/mL) with Streptococcus. Moreover, in the test with C. diff, the MBC was 50 µM (≈ 23.3 µg/mL). Further, the “reduction … in the bladder” value in the test on E. faecalis OG1RF is “about 1.5 log units”. For the same compound, the “reduction … on the catheters” value in the test with E. faecalis OG1RF was “about 1 log units”.

For `O=C(O)C1CSc2c(-c3cccc(C(F)(F)F)c3)c(Cc3c4ccccc4cc4ccccc34)cc(=O)n21` (stereo not drawn) [Example 37, 6-[(9-Anthryl)methyl]-4-oxo-7-[m-(trifluoromethyl)phenyl]-1-thia-3a-aza-3-indancarboxylic acid], the MIC in the test on MRSA is 25 µM (≈ 13.3 µg/mL); in the test on Staph. aureus, 50 µM (≈ 26.6 µg/mL); with Staph. saphyticus it was > 500 µM; in the test with Strep. pyogenes, 12.5 µM (≈ 6.64 µg/mL); against E. faecalis, 100 µM (≈ 53.2 µg/mL); against C. diff, 50 µM (≈ 26.6 µg/mL). For the same compound, the minimum bactericidal concentration (MBC) was 25 µM (≈ 13.3 µg/mL) against MRSA; 50 µM (≈ 26.6 µg/mL) in the test with Staph. aureus; 25 µM (≈ 13.3 µg/mL) against Staph. saphyticus; 12.5 µM (≈ 6.64 µg/mL) in the test on Strep. pyogenes; 400 µM (≈ 213 µg/mL) against E. faecalis; 50 µM (≈ 26.6 µg/mL) in the test on C. diff.

For the compound `O=C(O)C1CSc2c(-c3cccc(C(F)(F)F)c3)c(Cc3cccc4ccccc34)cc(=O)n21` (stereo not drawn) [Example 38, 6-[(1-Naphthyl)methyl]-4-oxo-7-[m-(trifluoromethyl)phenyl]-1-thia-3a-aza-3-indancarboxylic acid], the minimal inhibitory concentration (MIC) was determined as 200 µM (≈ 96.3 µg/mL) in the test on MRSA; 200 µM (≈ 96.3 µg/mL) against Staph. aureus; 250 µM (≈ 120 µg/mL) in the test on Staph. saphyticus; 50 µM (≈ 24.1 µg/mL) with Strep. pyogenes; 200 µM (≈ 96.3 µg/mL) in the test with E. faecalis; 200 µM (≈ 96.3 µg/mL) against C. diff. The MBC stood at 250 µM (≈ 120 µg/mL) in the test on MRSA; 250 µM (≈ 120 µg/mL) in the test on Staph. aureus; 50 µM (≈ 24.1 µg/mL) with Staph. saphyticus; 50 µM (≈ 24.1 µg/mL) against Strep. pyogenes; 250 µM (≈ 120 µg/mL) against E. faecalis; 200 µM (≈ 96.3 µg/mL) in the test with C. diff.

With `O=C(O)C1C(c2ccccc2)Sc2c(-c3ccc4c(c3)OCO4)c(COc3cccc4ccccc34)cc(=O)n21` (stereo not drawn) [Example 39, 6-[(1-Naphthyloxy)methyl]-4-oxo-2-phenyl-7-(1,3-Dioxa-5-indanyl)-1-thia-3a-aza-3-indancarboxylic acid], the MIC in the test with MRSA was 50 µM (≈ 27.5 µg/mL); against Staph. aureus it was 50 µM (≈ 27.5 µg/mL); with Staph. saphyticus, > 500 µM; against Strep. pyogenes, 12.5 µM (≈ 6.87 µg/mL); with E. faecalis it was 400 µM (≈ 220 µg/mL); against C. diff it was 100 µM (≈ 55 µg/mL). Moreover, the MBC with MRSA was 50 µM (≈ 27.5 µg/mL); against Staph. aureus, 200 µM (≈ 110 µg/mL); with Staph. saphyticus, 25 µM (≈ 13.7 µg/mL); in the test on Strep. pyogenes, 25 µM (≈ 13.7 µg/mL); against E. faecalis, 900 µM (≈ 495 µg/mL); in the test on C. diff it was 100 µM (≈ 55 µg/mL).

As for `COc1c(Cc2cccc3ccccc23)cc(=O)n2c(C(=O)O)c(-c3ccc(OCCCC(C)C)c(C)c3)sc12` [Example 50, 1H-imidazol-1-ium 8-methoxy-2-(3-methyl-4((4-methylpentyl)oxy)phenyl)-7-(naphtalen-1-ylmethyl)-5-oxo-thiazolo[3,2-a]pyridine-3-carboxylate], in the test with E. faecalis OG1RF (10 mg/kg), the “reduction … in the bladder” value is listed as “about 0.5 log units”.
